Source: patent US20090018163A1, “Substituted Heterocyclic Ethers and Their Use in CNS Disorders” (Bristol-Myers Squibb Company, priority 2007, published 2009)
Where two headings read alike, the source gives them in different places.

Experiments:
NK-1 = biological target: T1, NK-1 (Homo sapiens, UniProt P25103); assay: NK1 radioligand binding assay; settings: U373 membrane preparation, [125I]Substance P
T1 construct: 30 ul/well of a 2×U373 membrane preparation; endogenous in cells; host or cells: U373 cells (crude membrane preparation)
T1 sequence (P25103 whole entry): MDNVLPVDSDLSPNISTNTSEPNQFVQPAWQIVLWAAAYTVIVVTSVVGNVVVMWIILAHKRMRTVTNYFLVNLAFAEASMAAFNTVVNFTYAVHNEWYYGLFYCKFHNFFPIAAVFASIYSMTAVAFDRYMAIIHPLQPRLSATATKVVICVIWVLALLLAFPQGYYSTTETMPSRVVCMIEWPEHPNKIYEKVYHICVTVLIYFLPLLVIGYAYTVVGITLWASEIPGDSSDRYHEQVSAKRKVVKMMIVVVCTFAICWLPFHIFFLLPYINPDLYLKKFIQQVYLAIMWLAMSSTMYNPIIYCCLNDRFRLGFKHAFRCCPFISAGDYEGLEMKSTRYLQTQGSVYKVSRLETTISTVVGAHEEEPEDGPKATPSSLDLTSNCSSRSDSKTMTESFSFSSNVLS
Protocol: (§1) NK-1 Binding assay. Crude membrane suspensions were prepared for the NK1 and SERT radioligand binding assays from U373 cells or recombinant HEK-293 cells expressing hSERT, respectively. Cells were harvested from T-175 flasks as follows. The medium is removed from the flasks and the cells rinsed with HBSS without Ca and without Mg. The cells are then incubated for 5-10 minutes in 10 mM Tris-Cl, pH 7.5, 5 mM EDTA before the cells are lifted with a combination of pipetting and scraping, as needed. To prepare membranes, the cell suspension is collected into centrifuge bottles and homogenized for 30 seconds with a Polytron homogenizer. The suspension is centrifuged for 30 min @ 32,000×g, 4° C., then the supernatant is decanted and the pellet resuspended and homogenized in 50 mM Tris-Cl, pH 7.5, 1 mM EDTA for 10 seconds. The suspension is then centrifuged again for 30 min @ 32,000×g, 4° C. The supernatant is decanted and the pellet resuspended in 50 mM Tris-Cl, pH 7.5, 1 mM EDTA and briefly homogenized. A Bradford assay (Bio-rad) is performed and the membrane preparation diluted to 2 mg/ml with 50 mM Tris-Cl, pH 7.5, 1 mM EDTA. Aliquots are prepared, and then frozen and stored at −80° C.
NK1 radioligand binding assay. Compounds are dissolved in 100% DMSO at a concentration 100× the desired highest assay concentration, serially diluted 1:3 in 100% DMSO, and 0.6 ul/well of each solution is dispensed to a Nunc polypropylene, round bottom, 384 well plate. 100% inhibition is defined with 0.6 ul/well of 1 mM L-733,060 (Sigma L-137) dissolved in DMSO. 30 ul/well of a 2×U373 membrane preparation (267 ug/ml in 100 mM Tris-Cl, pH 7.5, 6 mM MgCl2, 0.2% (v/v) Sigma mammalian protease inhibitor cocktail (Sigma P-8340), and 4 ug/ml chymostatin, Sigma C-7268) and 30 ul/well of a 2× radioligand solution (400 pM [^125I]Substance P (Perkin Elmer NEX-190) in 1% (w/v) BSA (Sigma A-2153), 0.1 mg/ml bacitracin, Sigma B-0125) are added to the well and the reaction incubated for 1 hour at room temperature. The contents of the assay plate are then transferred to a Millipore MultiscreenHTS GF/B filter plate which has been pretreated with 0.5% PEI for at least one hour. The plate is vacuum filtered and washed with 7 washes of 100 ul/well of 20 mM Tris-Cl, pH 7.5, 0.5% (w/v) BSA chilled to 4° C. The filtration and washing is completed in less than 90 s. The plates are air-dried overnight, 12 ul/well of MicroScint scintillation fluid added, and the plates counted in a Trilux.
(§2) Data analysis. The raw data are normalized to percent inhibition using control wells defining 0% (DMSO only) and 100% (selective inhibitor) inhibition which are run on each plate. Each plate is run in triplicate, and the concentration response curve thus generated is fit using the four-parameter dose response equation, Y=Bottom+(Top-Bottom)/(1+10̂((LogIC50−X)*HillSlope)) in order to determine the IC50 value for each compound. The radioligand concentration chosen for each assay corresponds to the Kd concentration determined through saturation binding analysis for each assay.

hSERT = biological target: T2, hSERT (Homo sapiens, UniProt P31645); assay: SERT radioligand binding assay
T2 construct: expressed in transfected cells; host or cells: HEK-293 cells (crude membrane preparation)
T2 sequence (P31645 whole entry): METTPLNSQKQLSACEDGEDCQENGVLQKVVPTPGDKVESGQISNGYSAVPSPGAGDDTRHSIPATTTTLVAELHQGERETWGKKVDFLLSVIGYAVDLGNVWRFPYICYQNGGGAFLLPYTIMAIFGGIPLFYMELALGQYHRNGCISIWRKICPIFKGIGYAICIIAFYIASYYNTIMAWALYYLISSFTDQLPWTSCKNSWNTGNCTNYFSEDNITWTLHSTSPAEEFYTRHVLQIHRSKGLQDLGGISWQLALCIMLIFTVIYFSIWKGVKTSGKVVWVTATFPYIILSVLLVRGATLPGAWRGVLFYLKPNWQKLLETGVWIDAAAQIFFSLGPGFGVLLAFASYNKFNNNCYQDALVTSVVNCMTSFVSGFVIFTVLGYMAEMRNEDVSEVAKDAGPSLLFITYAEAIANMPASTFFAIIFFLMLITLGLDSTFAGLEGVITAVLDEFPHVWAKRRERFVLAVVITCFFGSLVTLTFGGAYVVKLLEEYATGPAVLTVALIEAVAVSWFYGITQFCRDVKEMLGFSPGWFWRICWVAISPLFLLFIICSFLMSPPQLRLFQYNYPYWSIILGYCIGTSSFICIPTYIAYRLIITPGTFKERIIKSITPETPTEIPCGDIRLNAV
Protocol: as §1
SERT radioligand binding assay. Compounds are dissolved in 100% DMSO at a concentration 100× the desired highest assay concentration, serially diluted 1:3 in 100% DMSO, and 0.4 ul/well of each solution is dispensed to a Nunc polypropylene, round bottom, 384 well plate. 100% inhibition is defined with 0.4 ul/well of 1 mM fluoxetine (Sigma F-132) dissolved in DMSO. 20 ul/well of a 2×HEK-hSERT membrane preparation (15 ug/ml in 50 mM Tris-Cl, pH 7.5, 120 mM NaCl, 5 mM KCl) and 20 ul/well of a 2× radioligand solution (520 pM [^125I]RTI-55 (Perkin-Elmer NEX-272) in 50 mM Tris-Cl, pH 7.5, 120 mM NaCl, 5 mM KCl) are added to each well and the reaction incubated for 1 hour at room temperature. The contents of the assay plate are then transferred to a Millipore MultiscreenHTS GF/B filter plate which has been pretreated with 0.5% PEI for at least one hour. The plate is vacuum filtered and washed with 7 washes of 100 ul/well of 50 mM Tris-Cl, pH 7.5, 120 mM NaCl, 5 mM KCl chilled to 4° C. The filtration and washing is completed in less than 90 s. The plates are air-dried overnight, 12 ul/well of MicroScint scintillation fluid added, and the plates counted in a Trilux.
as §2

[1] = HEK-hSERT membrane preparation, [125I]RTI-55, Table 1, read-out: SERT IC50
[2] = HEK-hSERT membrane preparation, [125I]RTI-55, Table 1a, single enantiomers, read-out: SERT IC50

Structure (SMILES) | IC50 (NK-1; Table 1) | IC50 (hSERT; [1]) | IC50 (NK-1; Table 1a, single enantiomers) | IC50 (hSERT; [2]) | IC50 (hSERT)
c1ccc(C2(COCc3cccc4cccnc34)CCNCC2)cc1 [Example 31, 8-(((4-phenylpiperidin-4-yl)methoxy)methyl)quinoline] | > 300 nM | 0.01 to 100 nM |  |  | 
Cc1cc(C(C)OCC2(c3ccc(F)cc3)CCNCC2)c2ncccc2c1 (stereo not shown) [Example 39] | 0.01 to 100 nM | 0.01 to 100 nM |  |  | 
CC(OCC1(c2ccccc2)CCNCC1)c1cc(C(F)(F)F)cc2cccnc12 (stereo not shown) [Example 35] | 0.01 to 100 nM | 0.01 to 100 nM |  |  | 
CC(OCC1(c2ccc(F)cc2)CCNCC1)c1cc(Br)cc2cccnc12 (single isomer, unassigned) [Example 77] |  |  | 0.01 to 100 nM | 0.01 to 100 nM | 
Cc1cc(COCC2(c3ccccc3)CCNCC2)nc2ccccc12 [Example 3] | 100 to 300 nM | 0.01 to 100 nM |  |  | 
Cc1cc(C(C)OCC2(c3ccc(F)cc3)CCN(C)CC2)c2ncccc2c1 (stereo not shown) [Example 40] | 0.01 to 100 nM | 0.01 to 100 nM |  |  | 
CC(OCC1(c2ccc(F)cc2F)CCNCC1)c1cc(C(F)(F)F)cc2cccnc12 (stereo not shown) [Example 37] | 0.01 to 100 nM | 0.01 to 100 nM |  |  | 
Cc1cc(COCC2(c3ccc(F)cc3)CCNCC2)c2ncccc2c1 [Example 29] | 0.01 to 100 nM | 0.01 to 100 nM |  |  | 
CC(OCC1(c2ccc(F)cc2F)CCN(C)CC1)c1cc(C(F)(F)F)cc2cccnc12 (stereo not shown) [Example 38] | 0.01 to 100 nM | 0.01 to 100 nM |  |  | 
CN1CCC(COCc2cc(C(F)(F)F)cc3cccnc23)(c2ccc(F)cc2)CC1 [Example 32, 8-(((4-(4-fluorophenyl)-1-methylpiperidin-4-yl)methoxy)methyl)-6-(trifluoromethyl)quinoline] | 0.01 to 100 nM | 0.01 to 100 nM |  |  | 
CN1CCC(COCc2cc(N)c3ccccc3n2)(c2ccccc2)CC1 [Example 8] | > 300 nM |  |  |  | 0.01 to 100 nM
N#Cc1ccc(-c2cc(COCC3(c4ccccc4)CCNCC3)c3ncccc3c2)cc1 [Example 24] | > 300 nM | 0.01 to 100 nM |  |  | 
CC(OCC1(c2ccc(F)cc2)CCN(C)CC1)c1cc(C(F)(F)F)cc2cccnc12 (single isomer, unassigned) [Example 70] |  |  | 0.01 to 100 nM | 0.01 to 100 nM | 
COc1ccc2cc(C)cc(C(C)OCC3(c4ccc(F)cc4)CCN(C)CC3)c2n1 (stereo not shown) [Example 50] | 0.01 to 100 nM | 0.01 to 100 nM |  |  | 
Cc1cc(C(C)OCC2(c3ccc(F)cc3)CCN(C)CC2)c2ncccc2c1 (single isomer, unassigned) [Example 75] |  |  | > 300 nM |  | 0.01 to 100 nM
c1ccc(C2(COCc3ccc4ccccc4n3)CCNCC2)cc1 [Example 5] | > 300 nM | 0.01 to 100 nM |  |  | 
CC(OCC1(c2ccc(F)cc2)CCN(C)CC1)c1cc(Br)cc2cccnc12 (single isomer, unassigned) [Example 78] |  |  | 100 to 300 nM |  | 0.01 to 100 nM
CC(OCC1(c2ccc(F)cc2)CCNCC1)c1cc(C(F)(F)F)cc2cccnc12 (stereo not shown) [Example 33] | 0.01 to 100 nM | 0.01 to 100 nM |  |  | 
CC(OCC1(c2ccccc2)CCN(C)CC1)c1cc(C(F)(F)F)cc2cccnc12 (single isomer, unassigned) [Example 73] |  |  | 0.01 to 100 nM | 0.01 to 100 nM | 
N#Cc1ccc(-c2cc(COCC3(c4ccccc4)CCNCC3)nc3ccccc23)cc1 [Example 15, 4-(2-(((4-phenylpiperidin-4-yl)methoxy)methyl)quinolin-4-yl)benzonitrile] | > 300 nM | 0.01 to 100 nM |  |  | 
CC(OCC1(c2ccccc2)CCN(C)CC1)c1cc(C(F)(F)F)cc2cccnc12 (stereo not shown) [Example 36] | 0.01 to 100 nM | 0.01 to 100 nM |  |  | 
Nc1cc(COCC2(c3ccccc3)CCNCC2)nc2ccccc12 [Example 7] | > 300 nM | 0.01 to 100 nM |  |  | 
FC(F)(F)c1ccc2c(Cl)cc(COCC3(c4ccccc4)CCNCC3)nc2c1 [Example 17, 4-chloro-2-(((4-phenylpiperidin-4-yl)methoxy)methyl)-7-(trifluoromethyl)quinoline] | > 300 nM | 0.01 to 100 nM |  |  | 
Cc1cc(C(C)OCC2(c3ccc(F)cc3)CCN(C)CC2)c2nc(N(C)C)ccc2c1 (stereo not shown) [Example 51] | 0.01 to 100 nM | 100 to 300 nM |  |  | 
CC(OCC1(c2ccc(F)cc2)CCN(C)CC1)c1cc(Br)cc2cccnc12 (single isomer, unassigned) [Example 79] |  |  | 0.01 to 100 nM | 0.01 to 100 nM | 
COc1ccc2nc(COCC3(c4ccccc4)CCN(C)CC3)ccc2c1 [Example 12] | > 300 nM |  |  |  | 0.01 to 100 nM
Brc1cc(COCC2(c3ccccc3)CCNCC2)nc2ccccc12 [Example 13, 4-bromo-2-(((4-phenylpiperidin-4-yl)methoxy)methyl)quinoline] | 100 to 300 nM | 0.01 to 100 nM |  |  | 
CC(OCC1(c2ccc(F)cc2)CCNCC1)c1cc(C(F)(F)F)cc2cccnc12 (single isomer, unassigned) [Example 67] |  |  | > 300 nM | 0.01 to 100 nM | 
Cc1cc(COCC2(c3ccccc3)CCN(C)CC2)c2ccccc2n1 [Example 2, 2-methyl-4-(((1-methyl-4-phenylpiperidin-4-yl)methoxy)methyl)quinoline] | > 300 nM |  |  |  | 0.01 to 100 nM
